The record followed here is patent publication US20040204488A1, “S-[2-[(1-Iminoethyl)amino]ethyl]-2-methyl-L-cysteine maleate crystalline salt” (priority 2003, published 2004).

SMILES strings stand for the structures. A value given as a limit tells only on which side of the number the result lay.

What all share (type): physicochemical
One data set can be described thus: Moisture sorption. As to conditions: 90% R.H. and 25° C. From the text: The novel salt is characterized by some or all of the following physical measurements: elemental analysis (such as by combustion analysis), melting point and heat of fusion (differential scanning calorimetry and thermogravimetric analysis), refractive indices (polarized light microscopy), x-ray powder diffraction pattern, moisture sorption (for example, DVS moisture balance) and vibrational signature (Raman spectrum).
FIG. 12 is a plot of a moisture sorption study of S-[2-[(1-Iminoethyl)amino]ethyl]-2-methyl-L-cysteine maleate.

Data set [1] can be described thus: physchem. As to conditions: water.
Data set [2] is described as follows: physchem. As to conditions: pKa of amidine ion. From the text:
The parent S-[2-[(1-Iminoethyl)amino]ethyl]-2-methyl-L-cysteine molecule has 3 ionizable groups and can exist in 4 ionization states.
At low pH, the molecule exists as a +2 charged free acid, with the carboxylic acid, amine and amidine moieties protonated. This is the ionization state for the dihydrochloride salt. The initial lots of S-[2-[(1-Iminoethyl)amino]ethyl]-2-methyl-L-cysteine (dihydrochloride) contained around 0.3 eq of excess HCl.
As the pH is increased, the carboxylic acid group is the first group to deprotonate, and this produces a net charge on the molecule of +1. If the pH increase is generated by addition of sodium hydroxide to S-[2-[(1-Iminoethyl)amino]ethyl]-2-methyl-L-cysteine, the sodium dihydrochloride salt is formed. If the increase in pH is due to removal of chloride ions by anion exchange processing, the product is the monohydrochloride salt with no sodium.
A positive charge still resides on the amidine, and a negative charge still resides on the carboxyl group. If such material is made by the addition of sodium hydroxide to the dihydrochloride, the resulting product is the monohydrochloro sodium salt, mixed with one equivalent of sodium chloride. The material prepared by the anion exchange resin approach is the free zwitterion.
Further increases in pH lead to deprotonation of the amidine ion (pKa ˜12.5). […]

Data set [3] is described as follows: Pseudo-titration in water with IRA-400(OH) anion exchange resin (pH vs resin added). As for the experimental part:
60 g of Amberlite IRA400 (OH) resin was prewashed with 4.7 percent (by weight) ammonium hydroxide (50 ml of 28 percent ammonium hydroxide, 250 ml deionized water), followed by extensive washing with deionized water. The final conductivity was 6.1 μS.
(§1) Cation exchange column cuts containing approximately 0.9 g of S-[2-[(1-Iminoethyl)amino]ethyl]-2-methyl-L-cysteine di-hydrochloride in 142 ml HCl/water solution, were concentrated on a rotary evaporator at 60° C. to an oil. To the oil, diluted to 60 ml with deionized water, was added aliquots of 0.5 g of washed anion exchange resin while stirring. At five minutes after each aliquot of resin was added, the solution pH was measured and a sample removed through a syringe filter. A total of 9 g of anion exchange resin was added. The final pH was 10.8. The resin was removed by filtration and the filtrate was concentrated to an oil by rotary evaporation at 60° C.; no solids formed. The starting material, final filtrate and all intermediate samples were assayed by HPLC and ion chromatography for chloride.
The diamond (solid line) is pH and square (dashed line) is S-[2-[(1-Iminoethyl)amino]ethyl]-2-methyl-L-cysteine (percent initial, by ion chromatography). […] The diamond (solid line) is pH and triangle (broken line) is chloride (by ion chromatography).
These curves are not true titration curves since samples were withdrawn during the progress of the reaction, and since true equilibrium was not attained before the increments of resin were added. Nevertheless, the graphs of FIG. 2 and FIG. 3 illustrate the expected trends. As resin is added to the S-[2-[(1-Iminoethyl)amino]ethyl]-2-methyl-L-cysteine solution the pH rises with change in slope around pH's of 2, 9 and 11. The pH's of slower rise are representative of the pK's of the carboxylic acid, amine and amidine functional groups, respectively. Above a pH of 10, the S-[2-[(1-Iminoethyl)amino]ethyl]-2-methyl-L-cysteine concentration in solution decreases. At this point, the S-[2-[(1-Iminoethyl)amino]ethyl]-2-methyl-L-cysteine is gaining a net negative charge and is binding to the resin. […]

Data set [4] is described as follows: Solution stability of anion-exchange titration samples by HPLC (Example 8). As to conditions: fractions of resin titration. As for the experimental part:
as §1
3.3 g a sample containing about 1 g of S-[2-[(1-Iminoethyl)amino]ethyl]-2-methyl-L-cysteine di-hydrochloride was diluted to 20 g. Aliquots of prewashed Amberlite IRA400 (OH) resin was added to the solution and samples were periodically withdrawn through a syringe filter. […] The starting materials, intermediate samples and final filtrate were analyzed. […] Samples were drawn at pH of 8.13 and 1.63 and analyzed by HPLC.
In the repeat of the above experiment, the resulting samples were analyzed by HPLC. […]

Take `CC(=N)NCCSC[C@](C)(N)C(=O)O.O=C(O)/C=C\C(=O)O` [S-[2-[(1-Iminoethyl)amino]ethyl]-2-methyl-L-cysteine maleate]: in “Moisture sorption”, the “water absorbed by weight” value is recorded as “less than one percent”. Further, the solubility in “physchem [1]” is greater than 230 mg/mL.

The molecule `CC(=N)NCCSC[C@](C)(N)C(=O)O` [S-[2-[(1-Iminoethyl)amino]ethyl]-2-methyl-L-cysteine] showed a pKa in the data set “physchem [2]” of roughly 12.5. Moreover, in data set [3], the “pH of slower rise representative of pK of amidine group” value is reported as roughly 11, the “pH of slower rise representative of pK of amine group” value was roughly 9 and the “pH of slower rise representative of pK of carboxylic acid group” value is roughly 2. For the same molecule, the “degradation of titration fractions by HPLC” value in data set [4] is “no degradation”.
